# Reference: PubChem BioAssay (NCI)
#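 Five concentrations, 48 hours, 96-well plates. TGI: total growth inhibition.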 Where a SMILES comes first, the peptide text is derived from it.
# Tests used:
# Test in all cases: NCI tumour cell line growth inhibition, 48 h
# [1] = tested on: MCF7 breast
# [2] = tested on: HT29 colon
# [3] = tested on: 786-0 renal
# [4] = tested on: M14 melanoma
# [5] = tested on: UACC-257 melanoma
# [6] = tested on: U251 CNS
# [7] = tested on: RXF 393 renal
# [8] = tested on: SNB-75 CNS
# [9] = tested on: SF-539 CNS
# [10] = tested on: BT-549 breast
# [11] = tested on: NCI-H226 lung
# [12] = tested on: SF-295 CNS
# [13] = tested on: EKVX NSCLC
# [14] = tested on: MDA-N
# [15] = tested on: PC-3 prostate
# [16] = tested on: SN12C renal
# [17] = tested on: A549 NSCLC
# [18] = tested on: HCT-15 colon
# [19] = tested on: COLO 205 colon
# [20] = tested on: SW-620 colon
# [21] = tested on: OVCAR-8 ovarian
# [22] = tested on: NCI-H23 lung
# [23] = tested on: OVCAR-4 ovarian
# [24] = tested on: MDA-MB-231 breast
# [25] = tested on: NCI-H522 lung
# [26] = tested on: IGROV1 ovarian
# [27] = tested on: OVCAR-3 ovarian
# [28] = tested on: MOLT-4 leukemia
# [29] = tested on: SK-MEL-5 melanoma
# [30] = tested on: MALME-3M melanoma
# [31] = tested on: CAKI-1 renal
# [32] = tested on: NCI/ADR-RES ovarian
# [33] = tested on: SK-MEL-28 melanoma
# [34] = tested on: TK-10 renal
# [35] = tested on: SF-268 CNS
# [36] = tested on: SK-OV-3 ovarian
# [37] = tested on: K-562 leukemia
# [38] = tested on: HCC-2998 colon
# [39] = tested on: MDA-MB-435
# [40] = tested on: T-47D breast
# [41] = tested on: NCI-H460 lung
# [42] = tested on: LOX IMVI melanoma
# [43] = tested on: SR leukemia
# [44] = tested on: HOP-62 NSCLC
# [45] = tested on: ACHN renal
# [46] = tested on: DU-145 prostate
# [47] = tested on: UACC-62 melanoma
# [48] = tested on: HL-60(TB) leukemia
# [49] = tested on: UO-31 renal
# [50] = tested on: CCRF-CEM leukemia
# [51] = tested on: SNB-19 CNS
# [52] = tested on: OVCAR-5 ovarian
# [53] = tested on: RPMI-8226 leukemia
# [54] = tested on: HOP-92 NSCLC
# [55] = tested on: HS 578T breast
# [56] = tested on: KM12 colon
# [57] = tested on: SK-MEL-2 melanoma
# [58] = tested on: HCT-116 colon
smiles,measurement,setting,value
COC(=O)[C@@]12CN(C)[C@@H](C(C)(C)C)N1C(=O)OC2c1ccccc1 (some centres undefined),TGI,[1],> 100 µM
same,TGI,[2],> 100 µM
same,TGI,[3],> 100 µM
same,TGI,[4],> 100 µM
same,TGI,[5],> 100 µM
same,TGI,[6],> 100 µM
same,TGI,[7],> 100 µM
same,TGI,[8],> 100 µM
same,TGI,[9],> 100 µM
same,TGI,[10],> 100 µM
same,TGI,[11],> 100 µM
same,TGI,[12],> 100 µM
same,TGI,[13],> 100 µM
same,TGI,[14],> 100 µM
same,TGI,[15],> 100 µM
same,TGI,[16],> 100 µM
same,TGI,[17],> 100 µM
same,TGI,[18],> 100 µM
same,TGI,[19],> 100 µM
same,TGI,[20],> 100 µM
same,TGI,[21],> 100 µM
same,TGI,[22],> 100 µM
same,TGI,[23],> 100 µM
same,TGI,[24],> 100 µM
same,TGI,[25],> 100 µM
same,TGI,[26],> 100 µM
same,TGI,[27],> 100 µM
same,TGI,[28],> 100 µM
same,TGI,[29],> 100 µM
same,TGI,[30],> 100 µM
same,TGI,[31],> 100 µM
same,TGI,[32],> 100 µM
same,TGI,[33],> 100 µM
same,TGI,[34],> 100 µM
same,TGI,[35],> 100 µM
same,TGI,[36],> 100 µM
same,TGI,[37],> 100 µM
same,TGI,[38],> 100 µM
same,TGI,[39],> 100 µM
same,TGI,[40],> 100 µM
same,TGI,[41],> 100 µM
same,TGI,[42],> 100 µM
same,TGI,[43],> 100 µM
same,TGI,[44],> 100 µM
same,TGI,[45],> 100 µM
same,TGI,[46],> 100 µM
same,TGI,[47],> 100 µM
same,TGI,[48],> 100 µM
same,TGI,[49],> 100 µM
same,TGI,[50],> 100 µM
same,TGI,[51],> 100 µM
same,TGI,[52],> 100 µM
same,TGI,[53],> 100 µM
same,TGI,[54],> 100 µM
same,TGI,[55],> 100 µM
same,TGI,[56],> 100 µM
CCC(C)C(NC(=O)C(NC(=O)C(CC(N)=O)NC(=O)CN)C(C)O)C(=O)NC(C(=O)NC(C)C(=O)NC(C(=O)NC(CCC(=O)O)C(=O)NC(CC(C)C)C(=O)NC(CC(=O)O)C(=O)NC(C(=O)NC(Cc1ccc(O)cc1)C(=O)N1CCCC1C(=O)O)C(C)O)C(C)C)C(C)C (centres undefined) (H-GNTIVAVELDTYP-OH; configuration not given here),TGI,[1],> 50 µM
same,TGI,[2],> 50 µM
same,TGI,[3],> 50 µM
same,TGI,[4],> 50 µM
same,TGI,[5],> 50 µM
same,TGI,[6],> 50 µM
same,TGI,[7],> 50 µM
same,TGI,[8],> 50 µM
same,TGI,[9],> 50 µM
same,TGI,[10],> 50 µM
same,TGI,[11],> 50 µM
same,TGI,[12],> 50 µM
same,TGI,[13],> 50 µM
same,TGI,[14],> 50 µM
same,TGI,[15],> 50 µM
same,TGI,[16],> 50 µM
same,TGI,[17],> 50 µM
same,TGI,[18],> 50 µM
same,TGI,[19],> 50 µM
same,TGI,[20],> 50 µM
same,TGI,[21],> 50 µM
same,TGI,[22],> 50 µM
same,TGI,[23],> 50 µM
same,TGI,[24],> 50 µM
same,TGI,[25],> 50 µM
same,TGI,[26],> 50 µM
same,TGI,[27],> 50 µM
same,TGI,[28],> 50 µM
same,TGI,[29],> 50 µM
same,TGI,[30],> 50 µM
same,TGI,[31],> 50 µM
same,TGI,[32],> 50 µM
same,TGI,[33],> 50 µM
same,TGI,[34],> 50 µM
same,TGI,[35],> 50 µM
same,TGI,[36],> 50 µM
same,TGI,[37],> 50 µM
same,TGI,[38],> 50 µM
same,TGI,[39],> 50 µM
same,TGI,[40],> 50 µM
same,TGI,[41],> 50 µM
same,TGI,[42],> 50 µM
same,TGI,[43],> 50 µM
same,TGI,[44],> 50 µM
same,TGI,[45],> 50 µM
same,TGI,[46],> 50 µM
same,TGI,[47],> 50 µM
same,TGI,[48],> 50 µM
same,TGI,[49],> 50 µM
same,TGI,[50],> 50 µM
same,TGI,[57],> 50 µM
same,TGI,[51],> 50 µM
same,TGI,[52],> 50 µM
same,TGI,[53],> 50 µM
same,TGI,[54],> 50 µM
same,TGI,[58],> 50 µM
same,TGI,[55],> 50 µM
same,TGI,[56],> 50 µM
